≈ marks a conversion by molar mass, not a printed value.
Legend:
Assay in all cases: microbe, parasite or virus in culture
Format in all cases: cell-based
[1] = test system: M. tuberculosis H37Rv isogenic strain resistant to rifampin (RMPr); conditions: Mycobacterium tuberculosis, read-out: MABA MIC RMPr
[2] = test system: M. tuberculosis H37Rv isogenic strain resistant to isoniazid (INHr); conditions: Mycobacterium tuberculosis, read-out: MABA MIC INHr
[3] = test system: M. tuberculosis H37Rv isogenic strain resistant to streptomycin (SMr); conditions: Mycobacterium tuberculosis, read-out: MABA MIC SMr
[4] = test system: M. tuberculosis H37Rv isogenic strain resistant to kanamycin (KMr); conditions: Mycobacterium tuberculosis, read-out: MABA MIC KMr
[5] = test system: M. tuberculosis H37Rv isogenic strain resistant to cycloserine (CSr); conditions: Mycobacterium tuberculosis, read-out: MABA MIC CSr
[6] = test system: M. tuberculosis H37Rv isogenic strain resistant to moxifloxacin (MOXr); conditions: Mycobacterium tuberculosis, read-out: MABA MIC MOXr

## NNC(=O)c1ccncc1 [Isoniazid]
[1]
  MIC: 0.12 µg/mL (≈ 0.875 µM)
[2]
  MIC: > 1.1 µg/mL
[3]
  MIC: 0.13 µg/mL (≈ 0.948 µM)
[4]
  MIC: 0.13 µg/mL (≈ 0.948 µM)
[5]
  MIC: 0.12 µg/mL (≈ 0.875 µM)
[6]
  MIC: 0.03 µg/mL (≈ 0.219 µM)

## CC(C)=C[C@@H]1C[C@H](C)[C@H]2CC[C@H](C)c3c2c1c(C)c1ncoc31 [Compound 1, pseudopteroxazole]
[1]
  MIC: 8 µg/mL (≈ 25.9 µM)
[2]
  MIC: 8 µg/mL (≈ 25.9 µM)
[3]
  MIC: 14 µg/mL (≈ 45.2 µM)
[4]
  MIC: 16 µg/mL (≈ 51.7 µM)
[5]
  MIC: 14 µg/mL (≈ 45.2 µM)
[6]
  MIC: 8 µg/mL (≈ 25.9 µM)

## CO[C@H]1/C=C/O[C@@]2(C)Oc3c(C)c(O)c4c(O)c(c(/C=N/N5CCN(C)CC5)c(O)c4c3C2=O)NC(=O)/C(C)=C\C=C\[C@H](C)[C@H](O)[C@@H](C)[C@@H](O)[C@@H](C)[C@H](OC(C)=O)[C@@H]1C [Rifampin, reference compound]
[1]
  MIC: > 3.3 µg/mL
[2]
  MIC: 0.02 µg/mL (≈ 0.0243 µM)
[3]
  MIC: 0.08 µg/mL (≈ 0.0972 µM)
[4]
  MIC: 0.02 µg/mL (≈ 0.0243 µM)
[5]
  MIC: 0.01 µg/mL (≈ 0.0122 µM)
[6]
  MIC: 0.02 µg/mL (≈ 0.0243 µM)

Source: paper PMC3447335, “Evaluation of Pseudopteroxazole and Pseudopterosin Derivatives against Mycobacterium tuberculosis and Other Pathogens” (Marine Drugs, 2012)
